Experimental data as given in patent US11807835B2, “Detergent compositions containing a stabilized enzyme by phosphonates” (ECOLAB USA INC., priority 2016, dated 2023).

Test system: amylase
Assay: Amylase activity retention in detergent use solution (4000 ppm, 5 GPG water; ethylidene substrate EPS, HEPES buffer pH 8.0)
Assay type: biochemical
Description: The enzyme activities in the detergents with different phosphonate levels were tested at 4000 ppm in 5 grains per gallon (GPG) water at 120° F. with various time points collected up to 4 hours, after a use solution was generated from the detergent composition. During the tests, the samples at different time points were collected and immediately frozen in an acetone/dry ice bath and stored in −80° C. before the activity of the enzyme was evaluated. For the use of such an assay, t=0 min was the reference point for 100% enzyme activity.
Assays of enzyme activity in formulations (% retention) were conducted to simulate a presoak condition in a beaker using the chemistry, temperature, and pH conditions relevant to manual warewash or presoak applications. Enzyme activity is an indicator of the stability of the enzyme in the detergent, specifically in an aqueous use solution within a sump (which is under conditions of high pH, temperature and dilution).
Enzyme activity under presoak or manual warewash conditions was traced quantitatively using a standard protease assay. Samples were prepared under bench top conditions, whereby the use solution from a detergent composition or detergent was obtained and maintained at a presoak or manual warewash temperature in a stirring water bath. After the time course for assessing enzyme stability is initiated, aliquots were taken at various time points and flash-frozen. A time=0 sample was prepared for each series by dissolving the detergent formulation at room temperature, mixing thoroughly, and flash freezing. Samples were thawed and diluted as necessary in an assay buffer usually for use in the protease assay. A glycine buffer at pH 9.0 is used here. The assay monitored the direct reaction of the protease on a small, commercially available peptidyl substrate, with liberation of the product providing correlation to the active enzyme content. The product was detected using a plate reader with an appreciable dynamic range (upper absorbance limit of the instrument >3.5). Enzyme activity levels were assessed relative to a calibration curve with average values for replicate tests used to map protease stability under presoak or manual warewash use conditions. Enzyme retention at each time point was calculated as the % enzyme activity relative to the time=0 sample.
The analysis by lipase and amylase assay was conducted similarly, except with a different substrate and buffers. For lipase activity, the substrate is p-nitrophenyl valerate, and for amylase, the substrate is an ethylidene substrate (EPS). The buffer used in lipase assay is TRIS (Tris(hydroxymethyl)aminomethane) buffer at pH 8.0, and in amylase assay HEPES (4-(2-hydroxyethyl)-1-piperazineethanesulfonic acid) buffer at pH 8.0.

[1] = All Ash formula, phosphonate 0.3 wt-%, use solution at 120° F., time 0 min
[2] = All Ash formula, phosphonate 0.3 wt-%, use solution at 120° F., time 5 min
[3] = All Ash formula, phosphonate 0.3 wt-%, use solution at 120° F., time 10 min
[4] = All Ash formula, phosphonate 0.3 wt-%, use solution at 120° F., time 20 min
[5] = All Ash formula, phosphonate 0.3 wt-%, use solution at 120° F., time 40 min
[6] = All Ash formula, phosphonate 0.3 wt-%, use solution at 120° F., time 60 min
[7] = All Ash formula, phosphonate 0.3 wt-%, use solution at 120° F., time 90 min
[8] = All Ash formula, phosphonate 0.3 wt-%, use solution at 120° F., time 120 min
[9] = All Ash formula, phosphonate 0.3 wt-%, use solution at 120° F., time 150 min
[10] = All Ash formula, phosphonate 0.3 wt-%, use solution at 120° F., time 180 min
[11] = All Ash formula, phosphonate 0.3 wt-%, use solution at 120° F., time 210 min
[12] = All Ash formula, phosphonate 0.3 wt-%, use solution at 120° F., time 240 min
[13] = base formula, phosphonate 0.3 wt-%, use solution at 120° F., time 0 min
[14] = base formula, phosphonate 0.3 wt-%, use solution at 120° F., time 5 min
[15] = base formula, phosphonate 0.3 wt-%, use solution at 120° F., time 10 min
[16] = base formula, phosphonate 0.3 wt-%, use solution at 120° F., time 20 min
[17] = base formula, phosphonate 0.3 wt-%, use solution at 120° F., time 40 min
[18] = base formula, phosphonate 0.3 wt-%, use solution at 120° F., time 60 min
[19] = base formula, phosphonate 0.3 wt-%, use solution at 120° F., time 90 min
[20] = base formula, phosphonate 0.3 wt-%, use solution at 120° F., time 120 min
[21] = base formula, phosphonate 0.3 wt-%, use solution at 120° F., time 150 min
[22] = base formula, phosphonate 0.3 wt-%, use solution at 120° F., time 180 min
[23] = base formula, phosphonate 0.3 wt-%, use solution at 120° F., time 210 min
[24] = base formula, phosphonate 0.3 wt-%, use solution at 120° F., time 240 min
[25] = base formula, phosphonate 0.6 wt-%, use solution at 120º F., time 0 min
[26] = base formula, phosphonate 0.6 wt-%, use solution at 120º F., time 5 min
[27] = base formula, phosphonate 0.6 wt-%, use solution at 120º F., time 10 min
[28] = base formula, phosphonate 0.6 wt-%, use solution at 120º F., time 20 min
[29] = base formula, phosphonate 0.6 wt-%, use solution at 120º F., time 40 min
[30] = base formula, phosphonate 0.6 wt-%, use solution at 120º F., time 60 min
[31] = base formula, phosphonate 0.6 wt-%, use solution at 120º F., time 90 min
[32] = base formula, phosphonate 0.6 wt-%, use solution at 120º F., time 120 min
[33] = base formula, phosphonate 0.6 wt-%, use solution at 120º F., time 150 min
[34] = base formula, phosphonate 0.6 wt-%, use solution at 120º F., time 180 min
[35] = base formula, phosphonate 0.6 wt-%, use solution at 120º F., time 210 min
[36] = base formula, phosphonate 0.6 wt-%, use solution at 120º F., time 240 min
[37] = base formula, phosphonate at 0.1% elemental phosphorus level, use solution at 120º F., time 0 min
[38] = base formula, phosphonate at 0.1% elemental phosphorus level, use solution at 120º F., time 5 min
[39] = base formula, phosphonate at 0.1% elemental phosphorus level, use solution at 120º F., time 10 min
[40] = base formula, phosphonate at 0.1% elemental phosphorus level, use solution at 120º F., time 40 min
[41] = base formula, phosphonate at 0.1% elemental phosphorus level, use solution at 120º F., time 60 min
[42] = base formula, phosphonate at 0.1% elemental phosphorus level, use solution at 120º F., time 90 min
[43] = base formula, phosphonate at 0.1% elemental phosphorus level, use solution at 120º F., time 120 min
[44] = base formula, phosphonate at 0.1% elemental phosphorus level, use solution at 120º F., time 150 min
[45] = base formula, phosphonate at 0.1% elemental phosphorus level, use solution at 120º F., time 180 min
[46] = base formula, phosphonate at 0.1% elemental phosphorus level, use solution at 120º F., time 210 min
[47] = base formula, phosphonate at 0.1% elemental phosphorus level, use solution at 120º F., time 240 min
[48] = base formula, phosphonate at 0.1% elemental phosphorus level, use solution at 120º F., time 20 min

## Diglycolamine phosphonate [DGAP]
[1]
  Relative Amylase Enzyme Activity: 100.00%
[2]
  Relative Amylase Enzyme Activity: 89.94%
[3]
  Relative Amylase Enzyme Activity: 87.50%
[4]
  Relative Amylase Enzyme Activity: 88.87%
[5]
  Relative Amylase Enzyme Activity: 86.87%
[6]
  Relative Amylase Enzyme Activity: 82.06%
[7]
  Relative Amylase Enzyme Activity: 81.79%
[8]
  Relative Amylase Enzyme Activity: 75.74%
[9]
  Relative Amylase Enzyme Activity: 79.71%
[10]
  Relative Amylase Enzyme Activity: 65.75%
[11]
  Relative Amylase Enzyme Activity: 71.27%
[12]
  Relative Amylase Enzyme Activity: 70.12%
All ash formula, versus same composition with PBTC or HEDP without amine(s), FIG. 4D
  amylase stability in all ash formula: more stable
[13]
  Relative Amylase Enzyme Activity: 39.01%
[14]
  Relative Amylase Enzyme Activity: 100.00%
[15]
  Relative Amylase Enzyme Activity: 113.48%
[16]
  Relative Amylase Enzyme Activity: 112.07%
[17]
  Relative Amylase Enzyme Activity: 110.36%
[18]
  Relative Amylase Enzyme Activity: 109.99%
[19]
  Relative Amylase Enzyme Activity: 118.04%
[20]
  Relative Amylase Enzyme Activity: 110.39%
[21]
  Relative Amylase Enzyme Activity: 111.92%
[22]
  Relative Amylase Enzyme Activity: 112.24%
[23]
  Relative Amylase Enzyme Activity: 115.96%
[24]
  Relative Amylase Enzyme Activity: 110.74%
[25]
  Relative Amylase Enzyme Activity: 100.00%
[26]
  Relative Amylase Enzyme Activity: 102.43%
[27]
  Relative Amylase Enzyme Activity: 95.89%
[28]
  Relative Amylase Enzyme Activity: 99.40%
[29]
  Relative Amylase Enzyme Activity: 97.26%
[30]
  Relative Amylase Enzyme Activity: 100.23%
[31]
  Relative Amylase Enzyme Activity: 95.37%
[32]
  Relative Amylase Enzyme Activity: 102.17%
[33]
  Relative Amylase Enzyme Activity: 102.37%
[34]
  Relative Amylase Enzyme Activity: 101.89%
[35]
  Relative Amylase Enzyme Activity: 102.69%
[36]
  Relative Amylase Enzyme Activity: 105.89%
[37]
  Relative Amylase Enzyme Activity: 100.00%
[38]
  Relative Amylase Enzyme Activity: 98.51%
[39]
  Relative Amylase Enzyme Activity: 108.49%
[40]
  Relative Amylase Enzyme Activity: 97.68%
[41]
  Relative Amylase Enzyme Activity: 97.62%
[42]
  Relative Amylase Enzyme Activity: 99.36%
[43]
  Relative Amylase Enzyme Activity: 92.67%
[44]
  Relative Amylase Enzyme Activity: 98.24%
[45]
  Relative Amylase Enzyme Activity: 93.89%
[46]
  Relative Amylase Enzyme Activity: 107.33%
[47]
  Relative Amylase Enzyme Activity: 103.75%

## Monoethanolamine phosphonate [MEAP]
[13]
  Relative Amylase Enzyme Activity: 100.00%
[14]
  Relative Amylase Enzyme Activity: 100.65%
[15]
  Relative Amylase Enzyme Activity: 102.68%
[16]
  Relative Amylase Enzyme Activity: 102.07%
[17]
  Relative Amylase Enzyme Activity: 91.36%
[18]
  Relative Amylase Enzyme Activity: 93.57%
[19]
  Relative Amylase Enzyme Activity: 94.85%
[20]
  Relative Amylase Enzyme Activity: 102.84%
[21]
  Relative Amylase Enzyme Activity: 93.01%
[22]
  Relative Amylase Enzyme Activity: 96.46%
[23]
  Relative Amylase Enzyme Activity: 100.65%
[24]
  Relative Amylase Enzyme Activity: 103.40%
[25]
  Relative Amylase Enzyme Activity: 100.00%
[26]
  Relative Amylase Enzyme Activity: 95.91%
[27]
  Relative Amylase Enzyme Activity: 99.98%
[28]
  Relative Amylase Enzyme Activity: 90.83%
[29]
  Relative Amylase Enzyme Activity: 91.75%
[30]
  Relative Amylase Enzyme Activity: 97.99%
[31]
  Relative Amylase Enzyme Activity: 99.08%
[32]
  Relative Amylase Enzyme Activity: 97.36%
[33]
  Relative Amylase Enzyme Activity: 101.28%
[34]
  Relative Amylase Enzyme Activity: 94.70%
[35]
  Relative Amylase Enzyme Activity: 99.20%
[36]
  Relative Amylase Enzyme Activity: 99.15%
[37]
  Relative Amylase Enzyme Activity: 100.00%
[38]
  Relative Amylase Enzyme Activity: 95.47%
[39]
  Relative Amylase Enzyme Activity: 112.93%
[48]
  Relative Amylase Enzyme Activity: 117.67%
[40]
  Relative Amylase Enzyme Activity: 122.41%
[41]
  Relative Amylase Enzyme Activity: 125.44%
[42]
  Relative Amylase Enzyme Activity: 127.99%
[43]
  Relative Amylase Enzyme Activity: 123.91%
[44]
  Relative Amylase Enzyme Activity: 120.88%
[45]
  Relative Amylase Enzyme Activity: 113.29%
[46]
  Relative Amylase Enzyme Activity: 112.78%
[47]
  Relative Amylase Enzyme Activity: 118.72%

## CC(O)(P(=O)(O)O)P(=O)(O)O [HEDP, 1-hydroxy ethylidene-1,1-diphosphonic acid]
[1]
  Relative Amylase Enzyme Activity: 92.90%
[2]
  Relative Amylase Enzyme Activity: 100.00%
[3]
  Relative Amylase Enzyme Activity: 97.04%
[4]
  Relative Amylase Enzyme Activity: 87.85%
[5]
  Relative Amylase Enzyme Activity: 70.85%
[6]
  Relative Amylase Enzyme Activity: 55.60%
[7]
  Relative Amylase Enzyme Activity: 63.30%
[8]
  Relative Amylase Enzyme Activity: 58.18%
[9]
  Relative Amylase Enzyme Activity: 54.50%
[10]
  Relative Amylase Enzyme Activity: 45.78%
[11]
  Relative Amylase Enzyme Activity: 44.79%
[12]
  Relative Amylase Enzyme Activity: 41.67%
[13]
  Relative Amylase Enzyme Activity: 100.00%
[14]
  Relative Amylase Enzyme Activity: 81.99%
[15]
  Relative Amylase Enzyme Activity: 90.32%
[16]
  Relative Amylase Enzyme Activity: 95.23%
[17]
  Relative Amylase Enzyme Activity: 84.92%
[18]
  Relative Amylase Enzyme Activity: 72.27%
[19]
  Relative Amylase Enzyme Activity: 79.95%
[20]
  Relative Amylase Enzyme Activity: 84.46%
[21]
  Relative Amylase Enzyme Activity: 79.54%
[22]
  Relative Amylase Enzyme Activity: 84.18%
[23]
  Relative Amylase Enzyme Activity: 69.49%
[24]
  Relative Amylase Enzyme Activity: 88.63%
[25]
  Relative Amylase Enzyme Activity: 100.00%
[26]
  Relative Amylase Enzyme Activity: 96.09%
[27]
  Relative Amylase Enzyme Activity: 99.71%
[28]
  Relative Amylase Enzyme Activity: 91.20%
[29]
  Relative Amylase Enzyme Activity: 94.89%
[30]
  Relative Amylase Enzyme Activity: 97.28%
[31]
  Relative Amylase Enzyme Activity: 94.67%
[32]
  Relative Amylase Enzyme Activity: 88.12%
[33]
  Relative Amylase Enzyme Activity: 90.33%
[34]
  Relative Amylase Enzyme Activity: 86.96%
[35]
  Relative Amylase Enzyme Activity: 96.92%
[36]
  Relative Amylase Enzyme Activity: 92.50%
[38]
  Relative Amylase Enzyme Activity: 100.00%
[39]
  Relative Amylase Enzyme Activity: 97.58%
[48]
  Relative Amylase Enzyme Activity: 90.30%
[40]
  Relative Amylase Enzyme Activity: 81.48%
[41]
  Relative Amylase Enzyme Activity: 83.84%
[42]
  Relative Amylase Enzyme Activity: 85.26%
[43]
  Relative Amylase Enzyme Activity: 82.59%
[45]
  Relative Amylase Enzyme Activity: 75.47%
[46]
  Relative Amylase Enzyme Activity: 85.77%
[47]
  Relative Amylase Enzyme Activity: 81.23%
